# Laboratory results reported in patent publication US20240115557A1, “INHIBITORS OF RNA-GUIDED NUCLEASES AND USES THEREOF” (The Brigham and Women's Hospital, Inc., priority 2022, published 2024).
# Numbered stars: 1 amine (or outer) side, 2 acyl side, 3 side chain; on linkers, the order of the positions; unused ones are H or OH. Bridge positions count the residues as written; N and C are the ends. Square brackets hold non-standard residues; d marks the D form. Peptide text beside a SMILES is read from it. I, II: the chains in the order shown. Actinocin(9to1) = Cc1c2oc3c(C)ccc(C(=O)[*:1])c3nc-2c(C(=O)[*:2])c(N)c1=O; NMeV = CN[C@H](C(=O)O)C(C)C; Sar = CNCC(=O)O
# Target: SpCas9 (Streptococcus pyogenes serotype M1, UniProt Q99ZW2)
# Sequence (Q99ZW2 whole entry): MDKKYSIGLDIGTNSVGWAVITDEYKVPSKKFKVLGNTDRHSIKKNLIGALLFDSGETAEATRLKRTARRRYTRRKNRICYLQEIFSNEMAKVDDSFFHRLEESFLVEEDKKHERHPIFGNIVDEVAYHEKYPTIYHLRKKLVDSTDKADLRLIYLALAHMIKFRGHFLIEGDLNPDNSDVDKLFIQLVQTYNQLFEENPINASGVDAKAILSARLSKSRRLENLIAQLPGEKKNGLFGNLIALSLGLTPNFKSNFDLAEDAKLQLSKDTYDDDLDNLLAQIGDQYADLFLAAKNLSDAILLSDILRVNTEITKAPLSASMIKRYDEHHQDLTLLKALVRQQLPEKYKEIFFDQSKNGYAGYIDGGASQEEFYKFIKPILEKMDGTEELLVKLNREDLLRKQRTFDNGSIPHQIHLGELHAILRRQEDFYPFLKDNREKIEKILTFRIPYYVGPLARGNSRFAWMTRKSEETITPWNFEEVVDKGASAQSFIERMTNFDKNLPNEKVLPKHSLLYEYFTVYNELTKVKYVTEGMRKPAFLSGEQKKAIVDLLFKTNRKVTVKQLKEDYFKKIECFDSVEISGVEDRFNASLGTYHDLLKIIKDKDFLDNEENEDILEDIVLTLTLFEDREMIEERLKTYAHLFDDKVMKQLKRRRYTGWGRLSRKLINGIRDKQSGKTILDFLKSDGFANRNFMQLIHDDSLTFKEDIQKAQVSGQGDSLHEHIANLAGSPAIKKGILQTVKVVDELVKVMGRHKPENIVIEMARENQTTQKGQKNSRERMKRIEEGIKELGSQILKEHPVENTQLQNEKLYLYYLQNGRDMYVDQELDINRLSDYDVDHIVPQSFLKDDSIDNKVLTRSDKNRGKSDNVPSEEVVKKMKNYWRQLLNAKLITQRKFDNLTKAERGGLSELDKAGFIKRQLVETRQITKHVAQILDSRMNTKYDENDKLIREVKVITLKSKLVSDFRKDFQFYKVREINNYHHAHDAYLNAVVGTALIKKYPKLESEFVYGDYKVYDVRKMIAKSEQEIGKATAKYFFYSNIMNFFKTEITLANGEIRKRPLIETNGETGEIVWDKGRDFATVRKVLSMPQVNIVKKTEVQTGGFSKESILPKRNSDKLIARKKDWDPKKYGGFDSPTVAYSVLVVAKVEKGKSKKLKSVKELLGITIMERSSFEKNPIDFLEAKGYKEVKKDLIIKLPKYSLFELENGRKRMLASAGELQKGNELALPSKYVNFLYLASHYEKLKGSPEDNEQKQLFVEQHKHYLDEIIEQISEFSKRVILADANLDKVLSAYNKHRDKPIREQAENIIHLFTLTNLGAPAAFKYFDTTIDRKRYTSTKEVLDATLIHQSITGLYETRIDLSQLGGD
# Assay: eGFP disruption assay, SpCas9, U2OS.eGFP.PEST cells
# Type: cell-based
# Settings: for Normalized Z rep1 / Z score Rep1: replicate 1; for SpCas9 eGFP disruption Rep1: replicate 1, raw readout; for Normalized Z rep2 / Z socre Rep2: replicate 2; for SpCas9 eGFP disruption Rep2: replicate 2, raw readout
# Source text: In some embodiments, the secondary assay may be an EGFP disruption assay. In such assay, a quantitative human cell-based reporter assay that enables rapid quantitation of targeted nuclease activities is used to characterize off-target cleavage of Cas9-based RNA guided endonucleases. In this assay, the activities of nucleases targeted to a single integrated EGFP reporter gene can be quantified by assessing loss of fluorescence signal in human U2OS.EGFP cells caused by inactivating frameshift insertion/deletion (indel) mutations introduced by error prone non-homologous end-joining (NHEJ) repair of nuclease-induced double-stranded breaks (DSBs).
# In one protocol, U2OS.EGFP cells harboring a single integrated copy of an EGFP-PEST fusion gene are cultured (see e.g., Reyon et al., Nat Biotech 30, 460-465 (2012), which is herein incorporated by reference in its entirety). For transfections, 200,000 cells are Nucleofected with gRNA expression plasmid and pJDS246 together with 30 ng of a Td-tomato-encoding plasmid using the SE Cell Line 4D-Nucleofector™ X Kit (Lonza) according to the manufacturer's protocol. Cells are analyzed 2 days post-transfection using a BD LSRII flow cytometer. Transfections for optimizing gRNA/Cas9 plasmid concentration are performed in triplicate and all other transfections are performed in duplicate. PCR amplification is used for sequence verification of endogenous human genomic sites. PCR reactions are performed using Phusion Hot Start II high-fidelity DNA polymerase (NEB). Loci are amplified using touchdown PCR (98° C., 10 s; 72-62° C., −1° C./cycle, 15s; 72° C., 30 s] 10 cycles, [98° C., 10s; 62° C., 15s; 72° C., 30 s] 25 cycles). Alternatively, PCR for other targets is performed with 35 cycles at a constant annealing temperature of 68° C. or 72° C., and 3% DMSO or IM betaine, if necessary. PCR products are analyzed on a QIAXCEL capillary electrophoresis system to verify both size and purity. Validated products are treated with ExoSap-IT (Affymetrix) and sequenced by the Sanger method (MGH DNA Sequencing Core) to verify each target site.
# Primary and secondary screening. The primary screen assayed a selection of unique chemical scaffolds derived from commercially available compounds and known bioactive molecular libraries (Table 7). Auto-fluorescent compounds were removed by a counter screen. Overall, the CAA was used to assay 122,409 small molecules with over 2,500 unique chemical scaffolds (FIG. 64F, Table 7). Of these compounds, 547 were selected as hits (Z score >3 in both replicates) for testing in orthogonal cell-based secondary assays. Hits were tested in duplicate in an eGFP disruption assay, wherein U2OS.eGFP.PEST cells^33 transfected with SpCas9 plasmid and eGFP-targeting gRNA plasmid were incubated with 20 μM of the compounds. In this assay, any compound that inhibited SpCas9 would rescue the loss of eGFP fluorescence. Here, toxic and auto-fluorescent compounds with a high GFP signal in cells were removed as false positives. […] Next, Applicants tested the 15 compounds in a luminescence-based gain-of-signal HiBiT knock-in assay, which involves SpCas9-mediated homology-directed tagging of GAPDH with a short peptide that luminesces upon complementation with a subunit derived from nanoluciferase.^34 Complementarily, the eGFP-disruption assay is fluorescence-based and involves error-prone DNA repair. As a counter-screen to remove false positives caused by cell death (viability <80%), the cell viability was measured after incubation.
# For SAR studies and dose-response studies, 300,000 U2OS.eGFP.PEST cells were nucleofected with 300 ng of SpCas9 plasmid (Addgene #43861) and 30 ng of eGFP-targeting gRNA plasmid (Addgene #47511)^33 using SE Cell Line 4D-Nucleofector X Kit (Lonza) following the pulse program of DN-100. For RNP-based genome editing, 10 pmol of SpCas9 (GenScript #Z03385) and 12 pmol of gRNA were mixed and incubated for 5 min. […]
# [1] = Cas9 = lower control, Ctrl = upper control
# [2] = normalized, lower control about 0, upper control about 1
SMILES,Normalized Z rep1,Z score Rep1,SpCas9 eGFP disruption Rep1,Normalized Z rep2,Z socre Rep2,SpCas9 eGFP disruption Rep2,SpCas9 eGFP disruption Rep1 [1],Normalized Z rep1 [2],SpCas9 eGFP disruption Rep2 [1],Normalized Z rep2 [2]
COc1ccc(-c2nnc3sc(-c4cccnc4)nn23)cc1OC [Compound D727-0025],−0.28,−2.04,60.269,−0.11,−1.05,59.908,,,,
Cc1nn(-c2ccccc2)c(C)c1CCc1nn2c(-c3ccncc3)nnc2s1 [Compound D727-0837],−0.15,−1.06,63.496,−0.11,−1.05,59.923,,,,
Brc1cccc(-c2nn3c(-c4ccccn4)nnc3s2)c1 [Compound D727-0489],−0.24,−1.76,61.183,−0.06,−0.58,61.347,,,,
N#Cc1[nH]c(=O)n(Cc2ccccc2)c1N [Cpd10],0.00,0.06,58.004,0.14,2.94,60.748,,,,
Brc1cccc(-c2nn3c(-c4cccnc4)nnc3s2)c1 [Compound D727-0051],0.02,0.13,67.429,0.08,0.79,65.459,,,,
Cc1nn(-c2ccccc2)c(C)c1CCc1nn2c(-c3cccc(F)c3)nnc2s1 [Compound D727-0828],−0.36,−2.61,58.376,−0.14,−1.34,59.045,,,,
COc1ccc(Cc2nnc3sc(-c4ccccc4OC)nn23)cc1 [Compound D727-0159],−0.57,−4.09,53.496,−0.23,−2.11,56.714,,,,
Cc1nn(-c2ccccc2)c(C)c1CCc1nnc2sc(-c3ccccc3F)nn12 [Compound D727-0713],,0.38,,,1.08,,68.26,0.05,66.347,0.12
Cc1cccc(C(=O)Nc2ccccc2Sc2cc(C)nc3ncnn23)c1 [Compound F518-0014],−0.36,−3.28,55.407,−0.34,−5.07,57.92,,,,
CN(C)c1cccc(-c2nn3c(-c4ccc5ccccc5c4)nnc3s2)c1 [Compound D727-0754],−0.15,−1.06,63.517,−0.59,−5.54,46.376,,,,
Fc1ccc(-c2nn3c(-c4cnccn4)nnc3s2)cc1Br [Compound D727-0884],−0.16,−1.16,63.178,−0.23,−2.10,56.742,,,,
"Cc1c2oc3c(C)ccc(C(=O)N[C@@H]4C(=O)N[C@H](C(C)C)C(=O)N5CCC[C@H]5C(=O)N(C)CC(=O)N(C)[C@@H](C(C)C)C(=O)O[C@@H]4C)c3nc-2c(C(=O)N[C@@H]2C(=O)N[C@H](C(C)C)C(=O)N3CCC[C@H]3C(=O)N(C)CC(=O)N(C)[C@@H](C(C)C)C(=O)O[C@@H]2C)c(N)c1=O [SAM001246846] (I: T[dV]P[Sar][NMeV] / II: T[dV]P[Sar][NMeV]; ester I:1-I:C, II:1-II:C; linker I:N-II:N via Actinocin(9to1))",−2.59,−16.90,26.655,−2.71,−26.02,24.765,,,,
